Measured values from PubChem BioAssay (NCI).
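Five concentrations, 48 hours, 96-well plates. At the TGI there is no net growth.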

Tests used:
Experiment in all cases: inhibition of tumour cell growth, NCI panel, 48 h
786-0 renal = system: 786-0 renal
A498 renal = system: A498 renal
A549 NSCLC = system: A549 NSCLC
ACHN renal = system: ACHN renal
BT-549 breast = system: BT-549 breast
CAKI-1 renal = system: CAKI-1 renal
CCRF-CEM leukemia = system: CCRF-CEM leukemia
COLO 205 colon = system: COLO 205 colon
DU-145 prostate = system: DU-145 prostate
EKVX NSCLC = system: EKVX NSCLC
HCC-2998 colon = system: HCC-2998 colon
HCT-116 colon = system: HCT-116 colon
HCT-15 colon = system: HCT-15 colon
HL-60(TB) leukemia = system: HL-60(TB) leukemia
HOP-62 NSCLC = system: HOP-62 NSCLC
HOP-92 NSCLC = system: HOP-92 NSCLC
HS 578T breast = system: HS 578T breast
HT29 colon = system: HT29 colon
IGROV1 ovarian = system: IGROV1 ovarian
K-562 leukemia = system: K-562 leukemia
KM12 colon = system: KM12 colon
LOX IMVI melanoma = system: LOX IMVI melanoma
M14 melanoma = system: M14 melanoma
MCF7 breast = system: MCF7 breast
MDA-MB-231 breast = system: MDA-MB-231 breast
MDA-MB-435 = system: MDA-MB-435
MDA-N = system: MDA-N
MOLT-4 leukemia = system: MOLT-4 leukemia
NCI-H226 lung = system: NCI-H226 lung
NCI-H23 lung = system: NCI-H23 lung
NCI-H460 lung = system: NCI-H460 lung
NCI-H522 lung = system: NCI-H522 lung
NCI/ADR-RES ovarian = system: NCI/ADR-RES ovarian
OVCAR-3 ovarian = system: OVCAR-3 ovarian
OVCAR-4 ovarian = system: OVCAR-4 ovarian
OVCAR-5 ovarian = system: OVCAR-5 ovarian
OVCAR-8 ovarian = system: OVCAR-8 ovarian
PC-3 prostate = system: PC-3 prostate
RPMI-8226 leukemia = system: RPMI-8226 leukemia
RXF 393 renal = system: RXF 393 renal
SF-268 CNS = system: SF-268 CNS
SF-295 CNS = system: SF-295 CNS
SF-539 CNS = system: SF-539 CNS
SK-MEL-2 melanoma = system: SK-MEL-2 melanoma
SK-MEL-28 melanoma = system: SK-MEL-28 melanoma
SK-MEL-5 melanoma = system: SK-MEL-5 melanoma
SK-OV-3 ovarian = system: SK-OV-3 ovarian
SN12C renal = system: SN12C renal
SNB-19 CNS = system: SNB-19 CNS
SNB-75 CNS = system: SNB-75 CNS
SR leukemia = system: SR leukemia
SW-620 colon = system: SW-620 colon
T-47D breast = system: T-47D breast
TK-10 renal = system: TK-10 renal
U251 CNS = system: U251 CNS
UACC-257 melanoma = system: UACC-257 melanoma
UACC-62 melanoma = system: UACC-62 melanoma
UO-31 renal = system: UO-31 renal

O=C(Cc1ccc(OCc2cccc(Cl)c2)cc1)NO
TGI (786-0 renal): 43.5 µM | TGI (A498 renal): 27 µM | TGI (A549 NSCLC): > 100 µM | TGI (ACHN renal): 86 µM | TGI (BT-549 breast): > 100 µM | TGI (CAKI-1 renal): 68.2 µM | TGI (CCRF-CEM leukemia): 42.5 µM | TGI (COLO 205 colon): > 100 µM | TGI (DU-145 prostate): 66.2 µM | TGI (EKVX NSCLC): > 100 µM | TGI (HCC-2998 colon): > 100 µM | TGI (HCT-116 colon): > 100 µM | TGI (HCT-15 colon): > 100 µM | TGI (HL-60(TB) leukemia): 44.9 µM | TGI (HOP-62 NSCLC): > 100 µM | TGI (HOP-92 NSCLC): > 100 µM | TGI (HS 578T breast): > 100 µM | TGI (HT29 colon): > 100 µM | TGI (IGROV1 ovarian): > 100 µM | TGI (K-562 leukemia): > 100 µM | TGI (KM12 colon): > 100 µM | TGI (LOX IMVI melanoma): 49 µM | TGI (M14 melanoma): > 100 µM | TGI (MCF7 breast): > 100 µM | TGI (MDA-MB-231 breast): > 100 µM | TGI (MDA-MB-435): > 100 µM | TGI (MDA-N): > 100 µM | TGI (MOLT-4 leukemia): 33.1 µM | TGI (NCI-H226 lung): 65.4 µM | TGI (NCI-H23 lung): > 100 µM | TGI (NCI-H460 lung): > 100 µM | TGI (NCI-H522 lung): > 100 µM | TGI (NCI/ADR-RES ovarian): 39.3 µM | TGI (OVCAR-3 ovarian): > 100 µM | TGI (OVCAR-4 ovarian): 82.7 µM | TGI (OVCAR-5 ovarian): > 100 µM | TGI (OVCAR-8 ovarian): 34.5 µM | TGI (PC-3 prostate): > 100 µM | TGI (RPMI-8226 leukemia): 50.8 µM | TGI (RXF 393 renal): > 100 µM | TGI (SF-268 CNS): > 100 µM | TGI (SF-295 CNS): > 100 µM | TGI (SF-539 CNS): > 100 µM | TGI (SK-MEL-2 melanoma): > 100 µM | TGI (SK-MEL-28 melanoma): > 100 µM | TGI (SK-MEL-5 melanoma): > 100 µM | TGI (SK-OV-3 ovarian): > 100 µM | TGI (SN12C renal): 76.5 µM | TGI (SNB-19 CNS): > 100 µM | TGI (SNB-75 CNS): > 100 µM | TGI (SR leukemia): 32.5 µM | TGI (SW-620 colon): > 100 µM | TGI (T-47D breast): 46.2 µM | TGI (TK-10 renal): > 100 µM | TGI (U251 CNS): > 100 µM | TGI (UACC-257 melanoma): > 100 µM | TGI (UACC-62 melanoma): 55.4 µM | TGI (UO-31 renal): 50.4 µM

O=C(O)CCc1nc2c(n1Cc1ccccc1)C(=O)c1ccccc1C2=O
TGI (786-0 renal): > 100 µM | TGI (A498 renal): > 100 µM | TGI (A549 NSCLC): > 100 µM | TGI (ACHN renal): > 100 µM | TGI (BT-549 breast): > 100 µM | TGI (CAKI-1 renal): > 100 µM | TGI (CCRF-CEM leukemia): > 100 µM | TGI (COLO 205 colon): > 100 µM | TGI (DU-145 prostate): > 100 µM | TGI (EKVX NSCLC): > 100 µM | TGI (HCC-2998 colon): > 100 µM | TGI (HCT-116 colon): > 100 µM | TGI (HCT-15 colon): > 100 µM | TGI (HL-60(TB) leukemia): > 100 µM | TGI (HOP-62 NSCLC): > 100 µM | TGI (HOP-92 NSCLC): 66.4 µM | TGI (HS 578T breast): > 100 µM | TGI (HT29 colon): > 100 µM | TGI (IGROV1 ovarian): > 100 µM | TGI (K-562 leukemia): > 100 µM | TGI (KM12 colon): > 100 µM | TGI (LOX IMVI melanoma): > 100 µM | TGI (M14 melanoma): 50.7 µM | TGI (MCF7 breast): > 100 µM | TGI (MDA-MB-231 breast): > 100 µM | TGI (MDA-MB-435): 35.8 µM | TGI (MDA-N): 52.8 µM | TGI (MOLT-4 leukemia): > 100 µM | TGI (NCI-H226 lung): > 100 µM | TGI (NCI-H23 lung): > 100 µM | TGI (NCI-H460 lung): > 100 µM | TGI (NCI-H522 lung): 72.1 µM | TGI (NCI/ADR-RES ovarian): > 100 µM | TGI (OVCAR-3 ovarian): 85.9 µM | TGI (OVCAR-4 ovarian): > 100 µM | TGI (OVCAR-5 ovarian): > 100 µM | TGI (OVCAR-8 ovarian): > 100 µM | TGI (PC-3 prostate): > 100 µM | TGI (RPMI-8226 leukemia): > 100 µM | TGI (RXF 393 renal): > 100 µM | TGI (SF-268 CNS): > 100 µM | TGI (SF-295 CNS): > 100 µM | TGI (SF-539 CNS): > 100 µM | TGI (SK-MEL-2 melanoma): 78.1 µM | TGI (SK-MEL-28 melanoma): > 100 µM | TGI (SK-MEL-5 melanoma): 43.5 µM | TGI (SK-OV-3 ovarian): > 100 µM | TGI (SN12C renal): > 100 µM | TGI (SNB-19 CNS): > 100 µM | TGI (SNB-75 CNS): > 100 µM | TGI (SR leukemia): > 100 µM | TGI (SW-620 colon): > 100 µM | TGI (T-47D breast): > 100 µM | TGI (TK-10 renal): > 100 µM | TGI (U251 CNS): > 100 µM | TGI (UACC-257 melanoma): > 100 µM | TGI (UACC-62 melanoma): > 100 µM | TGI (UO-31 renal): > 100 µM
